In patent US20220017468A1, “ISOQUINOLINE COMPOUNDS AND THEIR USE IN TREATING AhR IMBALANCE” (Dermavant Sciences GmbH, priority 2020, published 2022):
Where “and” joins values, the source holds several entries; their conditions need not be identical. Identical values can stand only once. Entries after “also recorded” stand apart in the source; their conditions may differ. Like-named read-outs stand apart in the source and are kept apart here.

Experiments:
[1] = plasma protein binding by Rapid Equilibrium Dialysis, minipig; type: in vitro ADME; conditions: minipig, plasma
Source text: (§1) The blood-to-plasma ratios were similar across species (1.22-1.36, Table 9).

Minipig Plasma Proteins = assay: as above; type: in vitro ADME
Source text: as §1

[2] = tested on: human peripheral blood CD4+ T-cells; assay: T cell viability; type: cell-based; conditions: 120 h, Th17 polarizing conditions, 5 days
Source text: (§2) Points represent percent maximum expression of protein compared to Th17 from six combined donors; 3 biological replicates per treatment. Error bars represent standard error of mean. […] Data are mean±standard error from 3 to 9 experimental data points. […] Error bars represent mean ±standard error of 10-15 biological replicates.

[3] = tested on: imiquimod (IMQ)-treated mouse; assay: IMQ mouse model of psoriasis; type: in vivo; conditions: for IL-17% effect vs. IMQ + SEM / IL-17F %effect vs IMQ + SEM: tissue mRNA
Protocol: Female BALB/c mice (BALB/cByJRj) were purchased from Janvier (France). Mice are allowed to eat a normal diet AO4C from SAFE (France) and drink ad libitum. BALB/c JByRj female mice (8 week-old at study initiation) are treated with imiquimod (IMQ) cream (5%) or vanicream (non-inflammatory inert cream). For three days of pre-treatment, and then daily until the end of the study (two hours before each application of IMQ), the same skin area is treated topically with 100 μL of compound. Mice are monitored for changes in clinical symptoms over the course of the study. Affected back skin is examined by histology and qPCR for evidence of compound efficacy.
Starting 3 days after first treatment, IMQ cream was applied daily for 4 (StudyA) or 10 days (Study B). Clinical scoring was monitored daily (FIG. 5A, FIG. 5B). At the end of the study, treated skin was evaluated by histology and qPCR for induced cytokine gene expression.
On days 0, 1, 2, 3: visual evaluation of the skin and psoriasis clinical scorewere noted.
Psoriasis reactions (erythema and plaques) are reported according to a 0-4 scale in ascending order of severity as shown below and results are shown in FIG. 5A1.
On the last day of treatment, a 6 mm punch of skin in the treated area is collected on a aluminium sheet (to keep the skin flattened) and placed into a tube containing Formalin solution (Neutral Buffered 10% (SIGMA HT501320-9 5L)) for histological analysis (FIG. 5A2).
On days 0, 1, 2, 3, 4, 5, 6, 7,8, 9: visual evaluation of the skin and psoriasis clinical score were noted.
Psoriasis reactions (erythema and plaques) are reported according to a 0-4 scale in ascending order of severity as shown below and results are shown in FIG. 5B1.
On the last day of treatment, a 6 mm punch of skin in the treated area is collected on a aluminium sheet (to keep the skin flattened) and placed into a tube containing Formalin solution (Neutral Buffered 10% (SIGMA HT501320-9 5L)) for histological analysis (FIG. 5B2).

CB2 = target: T1, CB2 (Homo sapiens, UniProt P34972); assay: fluorescence-based agonist assay using genetically modified yeast; type: cell-based; conditions: read-out: CB2 pEC50 (converted)
T1 construct: expressed in transfected cells
T1 sequence (P34972 whole entry, species assumed): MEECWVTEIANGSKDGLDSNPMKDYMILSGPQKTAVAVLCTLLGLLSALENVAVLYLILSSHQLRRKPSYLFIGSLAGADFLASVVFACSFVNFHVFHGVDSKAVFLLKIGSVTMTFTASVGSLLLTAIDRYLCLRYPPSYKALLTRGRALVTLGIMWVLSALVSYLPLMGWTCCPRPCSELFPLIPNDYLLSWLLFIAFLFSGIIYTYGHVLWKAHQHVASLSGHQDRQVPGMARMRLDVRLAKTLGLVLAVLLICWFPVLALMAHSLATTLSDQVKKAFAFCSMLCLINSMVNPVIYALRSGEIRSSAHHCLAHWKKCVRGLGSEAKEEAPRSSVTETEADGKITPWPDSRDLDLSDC

[4] = metabolic stability in liver microsomes, minipig; type: in vitro ADME
[5] = pharmacokinetics after a single intravenous dose, minipig; type: in vivo; conditions: plasma, 1 mg/kg intravenous, mean
Source text: (§3) Bioavailability was 46.5% and 41.0% for 30% Captisol and 30% Cavitron, respectively. 30% Captisol formulation was selected for the 7-day subcutaneous toxicity study in rat.

[6] = skin binding in human skin homogenate; type: in vitro ADME; conditions: 25, 50 and 100 ng/mL
IL-17A = assay: CD4+ T cell IL17 assay; type: cell-based, human; conditions: for IC50: T-cell
Protocol: Therefore, compounds are evaluated for their ability to reduce IL-17 production from CD4+ T cells stimulated under Th17-skewing conditions. Cryopreserved human CD4^+ T cells (AllCells, LLC, Alameda, CA and Stemcell Technologies, Inc. Vancouver, Canada) were differentiated to the Th17 subtype by culturing for 5 days in CD3-coated tissue culture plates (2 μg/mL) in Iscove's modified Dulbecco's medium (IMDM) containing 10% HI-FBS, 55 μM 2-mercaptoethanol and soluble anti-CD28 (3 μg/mL) in the presence of a Th17 skewing cocktail, [IL-1β (10 ng/mL), IL-6 (30 ng/mL), TGFβ (0.5 ng/mL), IL-21 (10 ng/mL), IL-23 (10 ng/mL), anti-IFNγ (10 μg/mL) and anti-IL-4 (10 μg/mL)] in the presence or absence of serially diluted compounds. Secretion of IL-17 from polarized CD4+ T-cells was measured in the culture media using an MSD (Meso Scale Discovery) detection system following 5 day exposure toTh17 polarization reagents with and without compounds.

[7] = metabolic stability in liver microsomes, dog; type: in vitro ADME
[8] = bioavailability after a single oral dose, minipig; type: in vivo; conditions: plasma, single 5 mg/kg oral dose, DMSO: Kolliphore HS15: hydroxypropyl-β-cyclodextrin (10:10:80)
Source text: as §3

Rat Plasma Proteins = assay: plasma protein binding by Rapid Equilibrium Dialysis, rat; type: in vitro ADME
Source text: as §1

[9] = as above; type: in vitro ADME; conditions: rat, plasma
Source text: as §1

[10] = tested on: human primary keratinocytes; assay: keratinocyte viability; type: cell-based; conditions: 48 h, two days
Source text: as §2

[11] = metabolic stability in hepatocytes, rat; type: in vitro ADME
[12] = read-out: % Unbound Mean (% CV)
[13] = read-out: Mean % Bound (converted)

**Q.** For `CC(C)c1c(O)cc(-c2cc3ccccc3cn2)cc1O`, which fraction unbound at 4 h, 2 μM [1, 12] is on record?
**A.** 0.0198

**Q.** And the fraction unbound at 4 h, 2 μM ([1]; read-out: % Unbound Replicate)?
**A.** 0.0187

**Q.** And the fraction unbound at 4 h, 2 μM [1, 13]?
**A.** 0.02

**Q.** What about the recovery at 4 h, 2 μM (Minipig Plasma Proteins) of the same molecule?
**A.** 95.6%

**Q.** What about the “% Unbound Replicate” value (Minipig Plasma Proteins; 2 μM) of the same molecule?
**A.** 2.52% and 1.57%

**Q.** And the “Mean % Stability at 4 hrs” value (Minipig Plasma Proteins; 2 μM)?
**A.** 107%

**Q.** What about the IC50 [2] of the same molecule?
**A.** 5900 nM

**Q.** What about the “IL-17% effect vs. IMQ + SEM” value ([3]; Study A, 0.3% + IMQ) of the same molecule?
**A.** 16.27 + 4.816%

**Q.** And the “IL-17F %effect vs IMQ + SEM” value ([3]; Study A, 0.3% + IMQ)?
**A.** 22.21 + 7.418%

**Q.** What about the “IL-17% effect vs. IMQ + SEM” value ([3]; Study B, 0.1% + IMQ) of the same molecule?
**A.** 78.48 + 18.771%

**Q.** What about the “IL-17F %effect vs IMQ + SEM” value ([3]; Study B, 0.1% + IMQ) of the same molecule?
**A.** 45.23 + 9.519%

**Q.** And the “IL-17% effect vs. IMQ + SEM” value ([3]; Study B, 0.3% + IMQ)?
**A.** 79.33 + 22.900%

**Q.** What about the “IL-17F %effect vs IMQ + SEM” value ([3]; Study B, 0.3% + IMQ) of the same molecule?
**A.** 60.01 + 12.229%

**Q.** And the clinical score ([3]; daily topical, 60% EtOH: 40% H2O solution, vs vehicle-treated mice)?
**A.** reduced clinical score

**Q.** What about the “skin cytokine gene expression (IL-17A, IL-17F)” value ([3]; topical, qPCR) of the same molecule?
**A.** significantly inhibited; also recorded: reduced cytokine gene expression

**Q.** And the “epidermis thickening induced by imiquimod” value ([3]; topical, skin histology)?
**A.** reduce the epidermis thickening; also recorded: reduced epidermal thickening

**Q.** What about the EC50 (CB2) of the same molecule?
**A.** 200 nM

**Q.** And the “CLint, mic” value ([4]; minipig liver microsomes, 0.5 μM)?
**A.** 3.01 mL/min/g liver

**Q.** And the CLint scaled at 0.5 μM ([4]; minipig liver microsomes, 0.5 μM, read-out: Scaled CLint, mic)?
**A.** 50.3 mL/min/kg

**Q.** What about the half-life at 0.5 μM ([4]; minipig, microsomes) of the same molecule?
**A.** 24.2 min

**Q.** And the AUC(0-inf) [5]?
**A.** 783 ng·h/mL

**Q.** And the half-life [5]?
**A.** 61.2 min

**Q.** What about the clearance ([5]; read-out: CLp) of the same molecule?
**A.** 21.3 mL/min/kg

**Q.** What about the Vd ([5]; read-out: Vss) of the same molecule?
**A.** 1.5 L/kg

**Q.** And the fraction unbound ([6]; human dermis homogenate)?
**A.** 0.341 ± 0.115

**Q.** What about the fraction unbound ([6]; human epidermis homogenate) of the same molecule?
**A.** 0.513 ± 0.011

**Q.** And the fraction unbound ([6]; whole human skin homogenate)?
**A.** 0.219 ± 0.0072

**Q.** And the IC50 (IL-17A; MSD-based readout of secreted IL-17A from Th17-polarized primary human CD4+ peripheral blood T cells, read-out: IL-17A pIC50 (converted))?
**A.** 3.98 nM

**Q.** What about the IC50 (IL-17A; primary human peripheral blood CD4+ T-cells, read-out: IL-17A inhibition IC50) of the same molecule?
**A.** 140 nM

**Q.** And the IL-17A production (IL-17A; Th17-skewing conditions, applied throughout culture)?
**A.** suppression of IL-17A; also recorded: reduces IL-17A production in a dose-dependent manner

**Q.** What about the “CLint, mic” value ([7]; dog liver microsomes, 0.5 μM) of the same molecule?
**A.** 1.59 mL/min/g liver

**Q.** What about the CLint scaled at 0.5 μM ([7]; dog liver microsomes, 0.5 μM, read-out: Scaled CLint, mic) of the same molecule?
**A.** 51.7 mL/min/kg

**Q.** What about the half-life at 0.5 μM ([7]; dog, microsomes) of the same molecule?
**A.** 32.1 min

**Q.** And the bioavailability [8]?
**A.** 0.1%

**Q.** What about the recovery at 4 h, 2 μM (Rat Plasma Proteins) of the same molecule?
**A.** 104%

**Q.** What about the “% Unbound Replicate” value (Rat Plasma Proteins; 2 μM) of the same molecule?
**A.** 1.37% and 1.44% and 6.36%

**Q.** And the “Mean % Stability at 4 hrs” value (Rat Plasma Proteins; 2 μM)?
**A.** 94.4%

**Q.** And the fraction unbound at 4 h, 2 μM [9, 12]?
**A.** 0.0306

**Q.** And the fraction unbound at 4 h, 2 μM [9, 13]?
**A.** 0.031

**Q.** And the IC50 [10]?
**A.** 12400 nM

**Q.** What about the “in vitro-to-in vivo extrapolation (IVIVE) ratio” value ([11]; rat) of the same molecule?
**A.** 0.45

**Q.** And the “CLint, hep” value ([11]; rat hepatocytes, 0.5 μM)?
**A.** 44.4 mL/min/g liver

**Q.** What about the half-life at 0.5 μM ([11]; rat hepatocytes, 0.5 μM) of the same molecule?
**A.** 3.37 min

**Q.** And the CLint scaled at 0.5 μM ([11]; rat hepatocytes, 0.5 μM, read-out: Scaled CLint, hep)?
**A.** 1600 mL/min/kg
